Data taken from US20230277503A1, “COMPOSITIONS AND METHODS TO REDUCE PATHOGENESIS” (priority 2017, published 2023).
Entries after “also recorded” stand apart in the source; their conditions may differ. Where two headings read alike, the source gives them in different places. Marks after values point to notes of the source that are not given here.

Assays:
HSV-1 RE = experiment: Murine model of HSV-1 (RE) chronic herpetic keratitis; type: in vivo, BALB/c mice; conditions: for signs of disease, including stromal opacity and corneal neovascularization: acute herpetic keratitis stage; for weight loss associated with HSV-1 ocular infection: day 5 to 11 post infection; for ocular histology (H&E, central cornea): day 15 post infection; for # Deceased / # Eyes showing signs of disease / Clinically clear eyes: day 15 post-infection, topical drops 4x per day for 8 days, (R)-DOI 500 μM; for stromal opacity score: following day 8 post infection; for clinical scores (slit lamp score, corneal opacity, neovascularization): up to 15 DPI, versus control BSS
Source text: (§1) 16 BALB/c mice, which can respond with a TH2 biased immune response, were randomly sorted into 3 treatment arms: 1) Ophthalmic Balanced Saline Solution diluted 1:1 in PBS (BSS+PBS) treated (6 mice); 2) DOI treated (XTPFDOI) (5 mice); 3) 1.0% TFT (TFT+PBS) (5 mice). Animals were anesthetized with […]:ketamine and both eyes were scarified in a cross hatch pattern using a curved needle. Immediately following ocular scarification, eyes were inoculated with a 3 microliter drop containing 10,000 plaque forming units (PFU) of Herpes Simplex Virus type 1 (HSV-1) RE strain. The next morning following infection animals were treated with the respective treatment as assigned within their treatment arm. Treatments were applied topically to the eye in a 4 microliter drop. Drops were applied 4× daily from 9 am to 5:30 pm starting immediately following clinical scoring. Treatments were applied for the first 8 days post infection and then stopped on day 8. Clinical scoring was done using a slit lamp biomicroscope magnified at 16× on the days indicated by a single individual masked to the drug treatment parameters. Slit lamp biomicroscopy also included fluorescein exclusion labeling of the corneal surface following scoring of all clinical parameters. Each eye was scored independently. Clinically clear eyes were scored as such if no apparent signs of disease were present in any clinical parameter during the chronic phase.
At day 15 post infection, a stage that will be during chronic immune-associated disease with no virus present, animals were euthanized and the eyes were removed for histology. Random representative eyes were prepared by taking sections through the central cornea and processed by H&E histology for visualization. Sections were examined microscopically and photographed across the central cornea.
BALB/c eyes were scarified and infected with HSV-1 (RE), an HSV-1 strain that causes herpetic keratitis in 100% of ocular infections^31. Starting 24 hours post-infection, topical drops were applied in a masked fashion 4× per day for 8 days. Individual clinical parameters were monitored and scored in a masked fashion for 15 days.
BALB/c eyes were scarified and infected with 10,000 PFU per eye of HSV-1 RE, an HSV-1 strain that causes herpetic keratitis in 100% of ocular infections.
Referring to FIGS. 37-42, for example, individual clinical parameters were monitored and scored in a masked fashion for 15 days post infection. Parameters included weight, death, epiphora, blepharitis, corneal epithelium, corneal neovascularization, stromal opacity, scleral inflammation and fluorescently visualized slitlamp biomicroscopy.
24 hours post infection, topical drops were applied in a masked fashion 4× per day at 4 ul per drop to the surface of the eye. Topical drops consisted of 1% Trifluorthymidine (1% TFT; Viroptic), Ophthalmic Balanced Salt Solution (BSS), or (R)-DOI in Ophthalmic BSS.
as §1, with “preferentially” for “can”, “(BSS)” for “diluted 1:1 in PBS (BSS+PBS)”, “((R)-DOI)” for “(XTPFDOI)”, “TFT” for “TFT (TFT+PBS)”, “Slit lamp biomicroscopy also included fluorescein exclusion labeling of the corneal surface following scoring of all clinical parameters. Each eye was scored independently. Clinically clear eyes were scored as such if no apparent signs of disease were present in any clinical parameter during the chronic phase.” left out

[1] = system: human microvascular endothelial cells (HMEC); experiment: HMEC spheroid vascular-like tubule outgrowth; type: cell-based; conditions: matrigel with VEGF; serotonin 50 nM, R-DOI 100 nM, TCB2 500 nM
Description: HMEC cells were cultured in specially coated U-shaped bottom 96 well plates in order to form tissue-like 3 dimension spheroids. Spheroids were subsequently implanted into wells that contained matrigel basement membranes supplemented with vascular endothelial growth factor (VEGF) or starved (Starvation control-no VEGF). Culture media was treated with either serotonin (50 nM), (R-DOI (100 nM) or TCB2 (500 nM) outgrowth from the spheroids of vascular-like structures was monitored microscopically.

[2] = system: VEGF-mediated neovascularization from aortic rings; experiment: Aortic ring neovascularization assay; type: cell-based, mice; conditions: for blood vessel sprouting, branching and formation from aortic rings: VEGF-containing endothelial growth medium, matrigel
Description: Referring to FIG. 34 for example, the aortas from sacrificed mice are removed, cleaned, and dissected into 1 mm tubule sections. These aortic rings are implanted into matrigel basement membrane and incubated in endothelial cell growth medium containing vascular endothelial growth factor. Aortic rings are continuously incubated in the presence of 5HT2A receptor agonists and antagonists at the indicated concentrations and examined by microscopy daily. Extensive sprouting, branching and networking of new blood vessels can be observed in control aortic rings, where multiple images needed to be stitched together in order to capture the extensive blood vessel network formed.

[3] = system: human microvascular endothelial cells; experiment: Endothelial tubule formation assay; type: cell-based; conditions: geltrex basement membrane
Description: Referring to FIG. 35 for example, to assess the ability of 5-HT2A agonists and antagonists to inhibit capillary-like endothelial tube formation, human microvascular endothelial cells were seeded into geltrex basement membrane and overlaid with endothelial growth medium containing vascular endothelial growth factor (VEGF) and the indicated drugs. Both 5HT2A agonists and antagonists disrupted formation of endothelial tube networks, the formation of branching, complex capillary structures, and interconnectivity of capillary tubes.

HSV-1 = type: cell-based, mice; conditions: 500 nM; for HSV-1 reactivation and amount of infectious virus shed from latent neurons (PFU/ml/TG): relative to mock/buffer control, 10 days
[4] = system: TNFα-induced inflammatory gene and protein expression; conditions: intraperitoneal, doses up to 30-fold below the CNS behaviorally-active threshold dose; aorta and intestine; cited from earlier work
asthma in a rat model = experiment: Rat model of asthma (OVA); type: in vivo; conditions: OVA (ovalbumin) allergen
Source text: OVA is ovalbumin, a frequently used allergen that induces robust, allergic pulmonary inflammation in laboratory rodents.

Row | Structure (SMILES) | signs of disease, including stromal opacity and corneal neovascularization (HSV-1 RE) | weight loss associated with HSV-1 ocular infection (HSV-1 RE) | # Deceased (HSV-1 RE) | # Eyes showing signs of disease (HSV-1 RE) | Clinically clear eyes (HSV-1 RE) | stromal opacity score (HSV-1 RE) | clinical scores (slit lamp score, corneal opacity, neovascularization) (HSV-1 RE) | vascular-like tubular growth from HMEC spheroids [1] | blood vessel sprouting, branching and formation from aortic rings [2] | VEGF-mediated human vascular endothelium tubule formation [3] | also measured
1 | O=c1[nH]c(=O)n([C@H]2C[C@H](O)[C@@H](CO)O2)cc1C(F)(F)F [1% TFT, trifluorothymidine, reference compound] | reduced signs of disease | experienced weight loss associated with HSV-1 ocular infections | 0/5 | 7/10 | 0/10 | markedly increased opacity score | initially controlled ocular disease development relative to control BSS treated eyes |  |  |  | ocular histology (H&E, central cornea) (HSV-1 RE; listed as TFT): immune cell infiltration, thickening of the stroma, neovascularization, and disruption of the corneal epithelial layers
2 | COc1cc(CCN)c(OC)cc1I [2CI, 2-(4-Iodo-2,5-dimethoxyphenyl)ethan-1-amine] |  |  |  |  |  |  |  | abrogated formation of vascular-like tubular growth |  |  | 
3 | O=C(c1ccc(F)cc1)C1CCN(CCCCc2ccccc2)CC1 [4F4PP, reference compound] |  |  |  |  |  |  |  |  | inhibit VEGF-mediated neovascularization from aortic rings | inhibit VEGF-mediated human vascular endothelium tubule formation | 
4 | COc1cc(C[C@@H](C)N)c(OC)cc1I [(R)-DOI, (R)-1-(2,5-dimethoxy-4-iodophenyl)-2-aminopropane] | reduced signs of disease | do not experience significant weight loss | 0/5 | 3/10* | 6/10 | increase in stromal opacity was muted | reduced slit lamp scores, corneal opacity and neovascularization | abrogated formation of vascular-like tubular growth | inhibit VEGF-mediated neovascularization from aortic rings; also recorded: inhibited blood vessel sprouting, branching and formation | inhibit VEGF-mediated human vascular endothelium tubule formation | delay in reactivation of HSV-1 from TGs (HSV-1; relative to mock): 2 fold; HSV-1 reactivation and amount of infectious virus shed from latent neurons (PFU/ml/TG) (HSV-1): inhibits HSV-1 reactivation from latent neurons; also recorded: significantly inhibited the number of reactivating TGs and the amount of infectious virus shed from neurons; HSV-1 reactivation and amount of infectious virus shed from latent neurons (PFU/ml/TG) (HSV-1; listed as DOI): significantly inhibited the degree of reactivation and amount of infectious virus shed from latent neurons; disease relative to control BSS treatment (HSV-1 RE; after day 8, chronic immuno-pathology): significantly reduced disease relative to control BSS treatment; eyes exhibiting complete clinical resolution (HSV-1 RE; by day 15, drops topically applied for 7 days post infection): 60%; corneal neovascularization (HSV-1 RE; compared to control BSS or TFT treated eyes): decreased development of corneal neovascularization; ocular histology (H&E, central cornea) (HSV-1 RE): markedly less disease presentation in all eyes examined; also recorded: most similar to uninfected eyes; ocular histology (H&E, central cornea) (HSV-1 RE; listed as DOI): normal ocular morphology with an absence of clinical signs of ocular disease; clinical scores (slit lamp score, corneal opacity, neovascularization) (HSV-1 RE; listed as DOI): suppressed development of all clinically scored parameters; concentration at which the inhibitory effects began to no longer be as effective ([2]; neovascularization, sprouting, branching, networking): 10 nM; TNFα-induced inflammatory gene and protein expression [4]: potently inhibits TNFα-induced inflammatory gene and protein expression
5 | CCN(CC)C(=O)[C@@H]1C=C2c3cccc4[nH]cc(c34)C[C@H]2N(C)C1 [LSD] |  |  |  |  |  |  |  |  |  |  | symptoms of asthma (asthma in a rat model): can prevent symptoms of asthma
6 | NCCc1c[nH]c2ccc(O)cc12 [serotonin, 5-hydroxytryptamine] |  |  |  |  |  |  |  | induces vascularization-like replication and tubule growth |  |  | 
